Results taken from patent US9689021B2, “Method for measuring beta-lactam antibiotics” (priority 2011, dated 2017).

Tests used:
[1] = molecular target: class A beta-lactamase (penicillinase) TEM-1 (Escherichia coli, UniProt P62593); assay: BLAC2 method, nitrocefin (CPR) rate with Tem-1; assay type: biochemical; details: even at 100 mg/L, fixed CPR
Method: In order to determine the concentration of ampicillin in a solution, two beta-lactamases were compared, in particular the class A beta-lactamase (penicillinase) TEM-1 (UniProt: C514X2_ECOLX) and the class C beta-lactamase of Enterobacter cloacae P99 described in Example 1.
The dilution buffer for the enzymes, nitrocefin (CPR), standards and samples was 50 mM PBS buffer, pH 7. The stock solution of CPR was 200 μM. The standard solution of ampicillin was prepared at concentrations of 100, 75, 50, 30, 15, 5, 1 and 0 mg/L.
In the method 2 (BLAC2), 99 μl of sample, 99 μl of CPR and 22 μl of enzyme, i.e. Tem-1 or P99, were mixed. The enzyme activity (v0 max) was adjusted at +/−0.2 ΔAbs482/min.

[2] = molecular target: class C beta-lactamase of Citrobacter freundii (Citrobacter freundii, UniProt P05193); details: cited from earlier work
[3] = molecular target: class C beta-lactamase of Pseudomonas aeruginosa (Pseudomonas aeruginosa, UniProt P24735); details: Pseudomonas aeruginosa, cited from earlier work
[4] = molecular target: class C beta-lactamase of Escherichia coli K12 (Escherichia coli, UniProt P00811); details: cited from earlier work
[5] = system: class C beta-lactamase of Enterobacter cloacae 908R; details: cited from earlier work
[6] = molecular target: class C beta-lactamase of Serratia marcescens (Serratia marcescens, UniProt P18539); details: Serratia marcescens, cited from earlier work
[7] = system: Oxa-29 class D beta-lactamase; assay: BLAC2 method, nitrocefin (CPR) rate with Oxa-29; assay type: biochemical
Method: (§1) The dilution buffer for the enzymes, CPR, standards and samples was 50 mM PBS buffer, pH 7.0.
(§2) The stock solution of CPR was 200 μM. Standards solution of ampicillin and cefuroxime were prepared at 100, 75, 50, 30, 15, 5, 1 and 0 mg/L.
In the method 2 (BLAC2), 99 μl of sample, 99 μl of CPR and 22 μl of enzyme Oxa-29 were mixed. The reaction kinetics was determined by measuring the absorbance at 482 nm as a function of time. Enzyme activity v0 max was adjusted at +/−0.2 ΔAbs482/min.

[8] = molecular target: class C beta-lactamase of Enterobacter cloacae P99 (Enterobacter cloacae, UniProt P05364); details: cited from earlier work
[9] = molecular target: P99 class C beta-lactamase (Enterobacter cloacae, UniProt P05364); assay: BLAC1 method, nitrocefin (CPR) rate with P99 (Example 7); assay type: biochemical
Method: as §1, §2
In the method 1 (BLAC1), 10 μl of 50-fold diluted sample, 100 μl of CPR and 100 μl of enzyme P99 were mixed. The reaction kinetics was determined by measuring the absorbance at 482 nm as a function of time. Enzyme activity v0 max was adjusted at +/−0.33 ΔAbs482/min.

Sequence of P99 class C beta-lactamase (P05364 21-381): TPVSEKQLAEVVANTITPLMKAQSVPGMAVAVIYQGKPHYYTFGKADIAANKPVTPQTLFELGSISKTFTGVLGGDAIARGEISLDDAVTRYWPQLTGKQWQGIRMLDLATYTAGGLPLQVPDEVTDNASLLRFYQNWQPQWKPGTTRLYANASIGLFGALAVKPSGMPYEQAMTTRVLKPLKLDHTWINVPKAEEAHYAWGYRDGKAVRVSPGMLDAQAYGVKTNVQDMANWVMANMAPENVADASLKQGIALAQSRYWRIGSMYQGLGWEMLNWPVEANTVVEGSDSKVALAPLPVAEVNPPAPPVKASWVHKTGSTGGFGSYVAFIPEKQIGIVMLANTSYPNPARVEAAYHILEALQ
Sequence of class C beta-lactamase of Pseudomonas aeruginosa (P24735 27-397): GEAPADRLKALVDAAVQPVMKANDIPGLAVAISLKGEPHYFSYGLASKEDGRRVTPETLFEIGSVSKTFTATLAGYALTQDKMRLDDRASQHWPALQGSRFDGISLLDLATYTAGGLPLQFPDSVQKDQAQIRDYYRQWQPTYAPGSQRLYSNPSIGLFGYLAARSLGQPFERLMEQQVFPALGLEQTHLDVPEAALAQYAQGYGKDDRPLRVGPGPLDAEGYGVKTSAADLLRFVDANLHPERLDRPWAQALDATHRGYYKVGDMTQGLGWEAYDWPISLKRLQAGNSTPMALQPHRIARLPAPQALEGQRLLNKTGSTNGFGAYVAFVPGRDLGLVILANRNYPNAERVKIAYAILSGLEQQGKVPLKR
Sequence of class C beta-lactamase of Escherichia coli K12 (P00811 20-377): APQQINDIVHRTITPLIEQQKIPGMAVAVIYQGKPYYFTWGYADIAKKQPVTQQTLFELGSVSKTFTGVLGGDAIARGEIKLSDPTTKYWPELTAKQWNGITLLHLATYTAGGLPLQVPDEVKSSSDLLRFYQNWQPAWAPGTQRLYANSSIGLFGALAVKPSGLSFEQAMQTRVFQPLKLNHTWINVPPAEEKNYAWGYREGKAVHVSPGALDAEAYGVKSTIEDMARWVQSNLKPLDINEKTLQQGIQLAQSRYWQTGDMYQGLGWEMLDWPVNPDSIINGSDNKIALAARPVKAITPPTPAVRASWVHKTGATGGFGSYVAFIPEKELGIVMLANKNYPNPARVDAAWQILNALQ
Sequence of class C beta-lactamase of Serratia marcescens (P18539 22-376): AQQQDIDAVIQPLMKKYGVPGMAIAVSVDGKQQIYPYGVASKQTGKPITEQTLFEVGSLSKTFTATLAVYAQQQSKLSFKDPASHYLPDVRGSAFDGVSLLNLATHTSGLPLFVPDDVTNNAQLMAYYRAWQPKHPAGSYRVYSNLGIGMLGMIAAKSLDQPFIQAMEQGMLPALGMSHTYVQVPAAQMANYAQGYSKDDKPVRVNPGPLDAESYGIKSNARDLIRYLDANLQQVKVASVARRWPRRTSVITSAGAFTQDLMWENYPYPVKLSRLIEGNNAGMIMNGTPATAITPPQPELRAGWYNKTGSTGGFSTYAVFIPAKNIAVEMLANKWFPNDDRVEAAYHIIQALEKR
Sequence of class C beta-lactamase of Enterobacter cloacae P99 (P05364 21-381): as the sequence (P05364 21-381) above
Sequence of class C beta-lactamase of Citrobacter freundii (P05193 21-381): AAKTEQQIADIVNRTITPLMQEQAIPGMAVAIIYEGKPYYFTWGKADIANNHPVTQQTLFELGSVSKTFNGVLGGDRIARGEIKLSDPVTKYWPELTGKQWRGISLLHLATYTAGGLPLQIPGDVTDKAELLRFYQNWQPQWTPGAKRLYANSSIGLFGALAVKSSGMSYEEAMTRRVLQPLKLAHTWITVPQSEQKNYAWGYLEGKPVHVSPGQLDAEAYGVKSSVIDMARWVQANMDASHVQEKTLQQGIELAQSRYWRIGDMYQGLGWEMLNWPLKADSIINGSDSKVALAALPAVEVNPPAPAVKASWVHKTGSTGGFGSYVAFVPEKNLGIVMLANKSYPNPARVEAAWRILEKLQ
Sequence of class A beta-lactamase (penicillinase) TEM-1 (P62593 24-286 limits assumed): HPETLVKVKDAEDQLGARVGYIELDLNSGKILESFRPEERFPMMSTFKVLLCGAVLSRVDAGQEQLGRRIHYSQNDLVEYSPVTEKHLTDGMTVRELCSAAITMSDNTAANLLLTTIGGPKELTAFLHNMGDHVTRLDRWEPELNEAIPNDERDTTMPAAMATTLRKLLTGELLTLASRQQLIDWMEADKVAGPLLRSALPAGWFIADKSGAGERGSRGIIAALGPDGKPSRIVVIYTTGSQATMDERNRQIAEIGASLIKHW

For `CC1(C)S[C@@H]2[C@H](NC(=O)[C@H](N)c3ccccc3)C(=O)N2[C@H]1C(=O)O` [Ampicillin], the “inhibition of Tem-1 catalyzed reaction” value [1] is listed as “no inhibition of the reaction was observed”, the Km [2] is listed as 0.2 µM and the kcat [2] is listed as 6.5 s⁻¹. For the same molecule, the kcat [3] was 4.4 s⁻¹, the Km ([3]; read-out: Km) was 0.5 µM and the Km [4] was 3.5 µM. For the same molecule, the kcat [4] was 4.2 s⁻¹, the Km [5] was 0.4 µM and the kcat [5] was 0.53 s⁻¹. For the same molecule, the kcat [6] was 0.46 s⁻¹, the Km ([6]; read-out: Km) was 0.01 µM and the “rate of Oxa-29 Class D beta-lactamase” value ([7]; BLAC2, 1 mg/L) was 0.1831 ΔAbs482/min. The “residual rate minus 1, (vomax/v0)−1, Oxa-29” value ([7]; BLAC2, 1 mg/L) was 0.048, the “rate of Oxa-29 Class D beta-lactamase” value ([7]; BLAC2, 5 mg/L) was 0.1680 ΔAbs482/min and the “residual rate minus 1, (vomax/v0)−1, Oxa-29” value ([7]; BLAC2, 5 mg/L) was 0.142. The “rate of Oxa-29 Class D beta-lactamase” value ([7]; BLAC2, 15 mg/L) was 0.1532 ΔAbs482/min, the “residual rate minus 1, (vomax/v0)−1, Oxa-29” value ([7]; BLAC2, 15 mg/L) was 0.253 and the “rate of Oxa-29 Class D beta-lactamase” value ([7]; BLAC2, 30 mg/L) was 0.1292 ΔAbs482/min. The “residual rate minus 1, (vomax/v0)−1, Oxa-29” value ([7]; BLAC2, 30 mg/L) was 0.485, the “rate of Oxa-29 Class D beta-lactamase” value ([7]; BLAC2, 50 mg/L) was 0.1056 ΔAbs482/min and the “residual rate minus 1, (vomax/v0)−1, Oxa-29” value ([7]; BLAC2, 50 mg/L) was 0.817. The “rate of Oxa-29 Class D beta-lactamase” value ([7]; BLAC2, 75 mg/L) was 0.0869 ΔAbs482/min, the “residual rate minus 1, (vomax/v0)−1, Oxa-29” value ([7]; BLAC2, 75 mg/L) was 1.208 and the “rate of Oxa-29 Class D beta-lactamase” value ([7]; BLAC2, 100 mg/L) was 0.0730 ΔAbs482/min. The “residual rate minus 1, (vomax/v0)−1, Oxa-29” value ([7]; BLAC2, 100 mg/L) was 1.629, the “linear regression coefficient a (Y=aX+b), Oxa-29” value ([7]; BLAC2, X in mg/L) was 0.0159 and the “linear regression coefficient b (Y=aX+b), Oxa-29” value ([7]; BLAC2, X in mg/L) was 0.0002. For the same molecule, the Km [8] was 0.4 µM, the kcat [8] was 0.74 s⁻¹ and the “rate of P99 class C beta-lactamase” value ([9]; BLAC1, 1 mg/L) was 0.3221 ΔAbs482/min. The “residual rate minus 1, (vomax/v0)−1, P99” value ([9]; BLAC1, 1 mg/L) was 0.004, the “rate of P99 class C beta-lactamase” value ([9]; BLAC1, 5 mg/L) was 0.3207 ΔAbs482/min and the “residual rate minus 1, (vomax/v0)−1, P99” value ([9]; BLAC1, 5 mg/L) was 0.008. For the same molecule, the “rate of P99 class C beta-lactamase” value ([9]; BLAC1, 15 mg/L) was 0.3164 ΔAbs482/min, the “residual rate minus 1, (vomax/v0)−1, P99” value ([9]; BLAC1, 15 mg/L) was 0.022 and the “rate of P99 class C beta-lactamase” value ([9]; BLAC1, 30 mg/L) was 0.3114 ΔAbs482/min. For the same molecule, the “residual rate minus 1, (vomax/v0)−1, P99” value ([9]; BLAC1, 30 mg/L) was 0.038, the “rate of P99 class C beta-lactamase” value ([9]; BLAC1, 50 mg/L) was 0.3008 ΔAbs482/min and the “residual rate minus 1, (vomax/v0)−1, P99” value ([9]; BLAC1, 50 mg/L) was 0.075. The “rate of P99 class C beta-lactamase” value ([9]; BLAC1, 75 mg/L) was 0.2909 ΔAbs482/min, the “residual rate minus 1, (vomax/v0)−1, P99” value ([9]; BLAC1, 75 mg/L) was 0.111 and the “rate of P99 class C beta-lactamase” value ([9]; BLAC1, 100 mg/L) was 0.2806 ΔAbs482/min. The “residual rate minus 1, (vomax/v0)−1, P99” value ([9]; BLAC1, 100 mg/L) was 0.152, the “linear regression coefficient a (Y=aX+b), P99” value ([9]; BLAC1, X in mg/L) was 0.0015 and the “linear regression coefficient b (Y=aX+b), P99” value ([9]; BLAC1, X in mg/L) was 0.0000.
